In the NIST ThermoML archive (doi:10.1016/j.jct.2005.11.012):
Numbers after ± are expanded uncertainties.

Assays:
[1] = xn = mol fraction of the nth substance listed; conditions: 101 kPa, Liquid
[2] = refractive index (Na D-line) (dimensionless); xn = mol fraction of the nth substance listed; conditions: 101 kPa, Liquid
[3] = 101 kPa, Liquid
[4] = refractive index (Na D-line) (dimensionless); conditions: 101.33 kPa, Liquid

For `BrC(Br)C(Br)Br` [1,1,2,2-tetrabromoethane] + CCCCCCO, the mass density ([1]; 293.15 K, x1 = 0.1001) was 1021.6 ± 0.58 kg/m3, the mass density ([1]; 293.15 K, x1 = 0.2007) was 1227.75 ± 0.89 kg/m3 and the mass density ([1]; 293.15 K, x1 = 0.3004) was 1434.26 ± 1.2 kg/m3. The mass density ([1]; 293.15 K, x1 = 0.4004) was 1643.89 ± 1.6 kg/m3, the mass density ([1]; 293.15 K, x1 = 0.5005) was 1856.54 ± 2 kg/m3 and the mass density ([1]; 293.15 K, x1 = 0.6008) was 2072.22 ± 2.3 kg/m3. It also gave a mass density ([1]; 293.15 K, x1 = 0.6999) of 2288.24 ± 2.5 kg/m3, a mass density ([1]; 293.15 K, x1 = 0.8012) of 2512.37 ± 2.8 kg/m3 and a mass density ([1]; 293.15 K, x1 = 0.9001) of 2734.51 ± 3.2 kg/m3. It also gave a mass density ([1]; 293.15 K, x1 = 1) of 2963.2 ± 3.5 kg/m3, a mass density ([1]; 303.15 K, x1 = 0.1001) of 1012.63 ± 0.57 kg/m3 and a mass density ([1]; 303.15 K, x1 = 0.2007) of 1216.94 ± 0.87 kg/m3. It also gave a mass density ([1]; 303.15 K, x1 = 0.3004) of 1421.62 ± 1.2 kg/m3, a mass density ([1]; 303.15 K, x1 = 0.4004) of 1629.48 ± 1.6 kg/m3 and a mass density ([1]; 303.15 K, x1 = 0.5005) of 1840.42 ± 2 kg/m3. The mass density ([1]; 303.15 K, x1 = 0.6008) was 2054.51 ± 2.2 kg/m3, the mass density ([1]; 303.15 K, x1 = 0.6999) was 2269.06 ± 2.5 kg/m3 and the mass density ([1]; 303.15 K, x1 = 0.8012) was 2491.76 ± 2.8 kg/m3. It also gave a mass density ([1]; 303.15 K, x1 = 0.9001) of 2712.53 ± 3.1 kg/m3, a mass density ([1]; 303.15 K, x1 = 1) of 2939.86 ± 3.5 kg/m3 and a refractive index ([2]; 293.15 K, x1 = 0.1001) of 1.43743 ± 0.00065. It also gave a refractive index ([2]; 293.15 K, x1 = 0.2007) of 1.45713 ± 0.00065, a refractive index ([2]; 293.15 K, x1 = 0.3004) of 1.4771 ± 0.00065 and a refractive index ([2]; 293.15 K, x1 = 0.4004) of 1.49787 ± 0.00066. The refractive index ([2]; 293.15 K, x1 = 0.5005) was 1.51914 ± 0.00066, the refractive index ([2]; 293.15 K, x1 = 0.6008) was 1.54101 ± 0.00066 and the refractive index ([2]; 293.15 K, x1 = 0.6999) was 1.56327 ± 0.00065. For the same compound, the refractive index ([2]; 293.15 K, x1 = 0.8012) was 1.58693 ± 0.00065, the refractive index ([2]; 293.15 K, x1 = 0.9001) was 1.61052 ± 0.00065 and the refractive index ([2]; 293.15 K, x1 = 1) was 1.63535 ± 0.00065. The refractive index ([2]; 303.15 K, x1 = 0.1001) was 1.43304 ± 0.00065, the refractive index ([2]; 303.15 K, x1 = 0.2007) was 1.45244 ± 0.00065 and the refractive index ([2]; 303.15 K, x1 = 0.3004) was 1.47214 ± 0.00065. It also gave a refractive index ([2]; 303.15 K, x1 = 0.4004) of 1.49244 ± 0.00066, a refractive index ([2]; 303.15 K, x1 = 0.5005) of 1.51355 ± 0.00066 and a refractive index ([2]; 303.15 K, x1 = 0.6008) of 1.53523 ± 0.00066. For the same compound, the refractive index ([2]; 303.15 K, x1 = 0.6999) was 1.55749 ± 0.00065, the refractive index ([2]; 303.15 K, x1 = 0.8012) was 1.58095 ± 0.00065 and the refractive index ([2]; 303.15 K, x1 = 0.9001) was 1.60452 ± 0.00065. For the same compound, the refractive index ([2]; 303.15 K, x1 = 1) was 1.62926 ± 0.00065.

In the case of `BrC(Br)C(Br)Br` [1,1,2,2-tetrabromoethane] + CCCCCO, the mass density ([1]; 293.15 K, x1 = 0.1009) is reported as 1048.36 ± 0.61 kg/m3, the mass density ([1]; 293.15 K, x1 = 0.2014) is reported as 1276.63 ± 0.97 kg/m3 and the mass density ([1]; 293.15 K, x1 = 0.3004) is reported as 1497.47 ± 1.4 kg/m3. The mass density ([1]; 293.15 K, x1 = 0.4003) was 1716.5 ± 1.8 kg/m3, the mass density ([1]; 293.15 K, x1 = 0.5014) was 1934.64 ± 2.1 kg/m3 and the mass density ([1]; 293.15 K, x1 = 0.6001) was 2144.16 ± 2.4 kg/m3. For the same compound, the mass density ([1]; 293.15 K, x1 = 0.7001) was 2353.22 ± 2.6 kg/m3, the mass density ([1]; 293.15 K, x1 = 0.7998) was 2558.61 ± 2.9 kg/m3 and the mass density ([1]; 293.15 K, x1 = 0.8997) was 2761.73 ± 3.2 kg/m3. The mass density ([1]; 293.15 K, x1 = 1) was 2963.2 ± 3.5 kg/m3, the mass density ([1]; 303.15 K, x1 = 0.1009) was 1038.85 ± 0.6 kg/m3 and the mass density ([1]; 303.15 K, x1 = 0.2014) was 1265.1 ± 0.95 kg/m3. For the same compound, the mass density ([1]; 303.15 K, x1 = 0.3004) was 1484.08 ± 1.3 kg/m3, the mass density ([1]; 303.15 K, x1 = 0.4003) was 1701.36 ± 1.7 kg/m3 and the mass density ([1]; 303.15 K, x1 = 0.5014) was 1917.88 ± 2.1 kg/m3. It also gave a mass density ([1]; 303.15 K, x1 = 0.6001) of 2125.93 ± 2.3 kg/m3, a mass density ([1]; 303.15 K, x1 = 0.7001) of 2333.58 ± 2.6 kg/m3 and a mass density ([1]; 303.15 K, x1 = 0.7998) of 2537.64 ± 2.9 kg/m3. The mass density ([1]; 303.15 K, x1 = 0.8997) was 2739.49 ± 3.2 kg/m3, the mass density ([1]; 303.15 K, x1 = 1) was 2939.86 ± 3.5 kg/m3 and the refractive index ([2]; 293.15 K, x1 = 0.1009) was 1.43257 ± 0.00065. For the same compound, the refractive index ([2]; 293.15 K, x1 = 0.2014) was 1.45508 ± 0.00065, the refractive index ([2]; 293.15 K, x1 = 0.3004) was 1.47732 ± 0.00065 and the refractive index ([2]; 293.15 K, x1 = 0.4003) was 1.49977 ± 0.00066. It also gave a refractive index ([2]; 293.15 K, x1 = 0.5014) of 1.52252 ± 0.00066, a refractive index ([2]; 293.15 K, x1 = 0.6001) of 1.54476 ± 0.00066 and a refractive index ([2]; 293.15 K, x1 = 0.7001) of 1.56734 ± 0.00065. The refractive index ([2]; 293.15 K, x1 = 0.7998) was 1.58989 ± 0.00065, the refractive index ([2]; 293.15 K, x1 = 0.8997) was 1.61255 ± 0.00065 and the refractive index ([2]; 293.15 K, x1 = 1) was 1.63535 ± 0.00065. The refractive index ([2]; 303.15 K, x1 = 0.1009) was 1.42823 ± 0.00065, the refractive index ([2]; 303.15 K, x1 = 0.2014) was 1.45052 ± 0.00065 and the refractive index ([2]; 303.15 K, x1 = 0.3004) was 1.47247 ± 0.00065. For the same compound, the refractive index ([2]; 303.15 K, x1 = 0.4003) was 1.49475 ± 0.00066, the refractive index ([2]; 303.15 K, x1 = 0.5014) was 1.51723 ± 0.00066 and the refractive index ([2]; 303.15 K, x1 = 0.6001) was 1.53938 ± 0.00066. For the same compound, the refractive index ([2]; 303.15 K, x1 = 0.7001) was 1.5616 ± 0.00065, the refractive index ([2]; 303.15 K, x1 = 0.7998) was 1.58403 ± 0.00065 and the refractive index ([2]; 303.15 K, x1 = 0.8997) was 1.60652 ± 0.00065. For the same compound, the refractive index ([2]; 303.15 K, x1 = 1) was 1.62926 ± 0.00065.

`CCCCCCCCCCO` [decan-1-ol] showed a mass density ([3]; 293.15 K) of 829.7 ± 0.57 kg/m3, a mass density ([3]; 303.15 K) of 822.85 ± 0.58 kg/m3 and a refractive index ([4]; 293.15 K) of 1.43706 ± 0.00065. It also gave a refractive index ([4]; 303.15 K) of 1.43302 ± 0.00065.

Compound `CCCCCCCCCCO` [decan-1-ol] + BrC(Br)C(Br)Br has a mass density ([1]; 293.15 K, x2 = 0) of 829.7 ± 0.57 kg/m3, a mass density ([1]; 303.15 K, x2 = 0) of 822.85 ± 0.58 kg/m3 and a refractive index ([2]; 293.15 K, x2 = 0) of 1.43706 ± 0.00065. For the same compound, the refractive index ([2]; 303.15 K, x2 = 0) was 1.43302 ± 0.00065.

In the case of `CCCCCCCO` [heptan-1-ol], the mass density ([3]; 293.15 K) is reported as 822.39 ± 0.58 kg/m3, the mass density ([3]; 303.15 K) is reported as 815.41 ± 0.58 kg/m3 and the refractive index ([4]; 293.15 K) is reported as 1.42397 ± 0.00065. For the same compound, the refractive index ([4]; 303.15 K) was 1.42002 ± 0.00065.

Work on `CCCCCCCO` [heptan-1-ol] + BrC(Br)C(Br)Br yielded a mass density ([1]; 293.15 K, x2 = 0) of 822.39 ± 0.58 kg/m3, a mass density ([1]; 303.15 K, x2 = 0) of 815.41 ± 0.58 kg/m3 and a refractive index ([2]; 293.15 K, x2 = 0) of 1.42397 ± 0.00065. For the same compound, the refractive index ([2]; 303.15 K, x2 = 0) was 1.42002 ± 0.00065.

Work on `CCCCCCO` [hexan-1-ol] yielded a mass density ([3]; 293.15 K) of 818.92 ± 0.58 kg/m3, a mass density ([3]; 303.15 K) of 811.73 ± 0.59 kg/m3 and a refractive index ([4]; 293.15 K) of 1.41826 ± 0.00065. It also gave a refractive index ([4]; 303.15 K) of 1.41423 ± 0.00065.

For `CCCCCCO` [hexan-1-ol] + BrC(Br)C(Br)Br, the mass density ([1]; 293.15 K, x2 = 0) was 818.92 ± 0.58 kg/m3, the mass density ([1]; 303.15 K, x2 = 0) was 811.73 ± 0.59 kg/m3 and the refractive index ([2]; 293.15 K, x2 = 0) was 1.41826 ± 0.00065. It also gave a refractive index ([2]; 303.15 K, x2 = 0) of 1.41423 ± 0.00065.

In the case of `CCCCCCCCO` [octan-1-ol], the mass density ([3]; 293.15 K) is reported as 824.99 ± 0.58 kg/m3, the mass density ([3]; 303.15 K) is reported as 818.09 ± 0.58 kg/m3 and the refractive index ([4]; 293.15 K) is reported as 1.42958 ± 0.00065. It also gave a refractive index ([4]; 303.15 K) of 1.42562 ± 0.00065.

With `CCCCCCCCO` [octan-1-ol] + BrC(Br)C(Br)Br the mass density ([1]; 293.15 K, x2 = 0) was 824.99 ± 0.58 kg/m3, the mass density ([1]; 303.15 K, x2 = 0) was 818.09 ± 0.58 kg/m3 and the refractive index ([2]; 293.15 K, x2 = 0) was 1.42958 ± 0.00065. For the same compound, the refractive index ([2]; 303.15 K, x2 = 0) was 1.42562 ± 0.00065.

With `CCCCCO` [pentan-1-ol] the mass density ([3]; 293.15 K) was 815.03 ± 0.58 kg/m3, the mass density ([3]; 303.15 K) was 807.6 ± 0.59 kg/m3 and the refractive index ([4]; 293.15 K) was 1.40995 ± 0.00065. The refractive index ([4]; 303.15 K) was 1.40592 ± 0.00065.

For `CCCCCO` [pentan-1-ol] + BrC(Br)C(Br)Br, the mass density ([1]; 293.15 K, x2 = 0) was 815.03 ± 0.58 kg/m3, the mass density ([1]; 303.15 K, x2 = 0) was 807.6 ± 0.59 kg/m3 and the refractive index ([2]; 293.15 K, x2 = 0) was 1.40995 ± 0.00065. It also gave a refractive index ([2]; 303.15 K, x2 = 0) of 1.40592 ± 0.00065.
